Results as given in the METLIN SMRT retention time set (Domingo-Almenara et al. 2019).

Test: gradient 5% acetonitrile 3 min, to 50% in 2 min, to 85% in 15 min, held 3 min, 100 µL/min
Details: column: Zorbax Extend-C18 2.1 x 50 mm; eluents: water / acetonitrile, 0.1% formic acid
Procedure, shortened: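 Mixtures of ~100 pure standards were chromatographed on a Zorbax Extend-C18 column (2.1 × 50 mm, 1.8 μm) at 100 μL/min using water and acetonitrile, each with 0.1% formic acid. Detection used a quadrupole time-of-flight mass spectrometer in positive and negative ionization mode, and data collection spanned 3 months. Retention time was obtained from adduct peaks picked computationally and each checked manually.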

RP-LC retention time [s]	SMILES
748	COc1cc(CNC(=O)C2CCN(c3nc(C4CCC4)nc4csc(C)c34)CC2)cc(OC)c1
727	COc1ccccc1CNC(=O)C1CCCN(c2cnc3nc(C)c(C)nc3c2)C1 (centres undefined)
758	CCC(=O)N1CCc2cc(N3CC(C(=O)Nc4ccccc4OC)CC3=O)ccc21 (centres undefined)
804	O=C(Cn1c(C(F)(F)F)nc2ccccc21)NCc1ccc2c(c1)OCCCO2
800	CCN1C(=O)c2cc(C(=O)Nc3ccc(C)cc3C)nn2CC1(C)C(=O)NC1CCCC1 (centres undefined)
603	O=C(NCCCN1CCCC1)c1nnc(-c2ccc(S(=O)(=O)N3CCCC3)cc2)o1
698	CCc1ccc(NC(=O)N2CCN(c3cnn4c(CC)nnc4c3)CC2)cc1
769	Cc1cc(NC(=O)C2CCCN(c3cnc4nccnc4c3)C2)ccc1F (centres undefined)
887	COc1ccc(OC)c(NC(=O)NC2CCN(c3cc(C)cc(C)c3)C2=O)c1 (centres undefined)
979	Cc1ccc(CN(C(=O)COc2ccc(Cl)c(C)c2)C2CCS(=O)(=O)C2)o1 (centres undefined)
920	Cc1cccc(S(=O)(=O)N2C[C@@H]3CN(S(=O)(=O)c4c(C)noc4C)C[C@H](C2)O3)c1
824	CNC(=O)C1CCN(c2nc3ccc(-c4ccc(F)cc4)nc3s2)CC1
1010	Cc1c(-c2noc(-c3ccc4c(c3)OCO4)n2)nnn1Cc1ccccc1
625	Cc1ccc(NC(=O)CSc2ccc(N3CCCC(C(=O)NC4CC4)C3)nn2)c(C)c1 (centres undefined)
785	CSc1ccc(NC(=O)CN2C(=O)C3CCCN3C(=O)c3cc(C)ccc32)cc1 (centres undefined)
1200	O=C(NCCC1=CCCCC1)C1CCCCN1S(=O)(=O)c1ccc(Cl)cc1 (centres undefined)
600	CCC(=O)NCc1nc2c(n1C)CN(S(=O)(=O)c1ccc(F)cc1F)CC2
884	COc1cc(OC)c(NC(=O)c2c(OC)cc(=O)n3c2CCCC3)cc1Cl
654	NC(=O)c1ccc(Oc2ccc(C(N)=O)cc2)cc1
791	CCS(=O)(=O)N1CCC(c2ccccc2)C1 (centres undefined)
975	Cc1c(Cl)cccc1NC(=O)c1cccc([N+](=O)[O-])c1O
742	O=C(NCC1CCOCC1)c1ccc2[nH]ccc2c1

RP-LC retention time [s]	SMILES
745	CCOc1cc(C(=O)NC(C)C(=O)Nc2nc3ccccc3[nH]2)cc(OCC)c1OCC (centres undefined)
643	CCOC(=O)Cn1c(CN(C)Cc2ccccc2)nc2c1c(=O)n(C)c(=O)n2C
705	O=C(Nc1ccc2c(c1)OCCO2)N1CCC(n2c(-c3ccco3)nc3cccnc32)C1 (centres undefined)
1110	Cc1ccc(CNC(=O)C2(C)CCCN(C(=O)Nc3ccc(C)c(Cl)c3)C2)cc1 (centres undefined)
925	Cc1ccc(S(=O)(=O)N2CCC(n3cnc4ccc(C)cc4c3=O)CC2)cc1
783	O=c1n(Cc2ccc3c(c2)OCO3)nc2c(S(=O)(=O)N3CCCC3)cccn12
1140	COc1ccc2c(c1)CCc1sc(NC(=O)c3ccc(F)cc3)nc1-2
859	Cc1nc(-c2ccc(NC(=O)N3CCN(c4ccc(F)cc4)CC3)cc2)no1
1260	Cc1nn(-c2nc(-c3ccc(Cl)cc3)cs2)c(C)c1CC(=O)Nc1ccccc1F
646	COc1cccc(-c2cc(C(N)=O)n(C)n2)c1
653	CCCNC(=O)CC1CCN(C(=O)c2c(C)[nH]c(C(=O)OCC)c2C)CC1
796	CCCCN(CC)C(=O)C1CCCN(c2ccc(-c3ccc(C)cc3)nn2)C1 (centres undefined)
639	Cc1cc(NC(=O)C2CCN(C(=O)c3c[nH]c4ccccc34)CC2)no1
762	O=C(c1ccco1)N1CCN(C(=O)c2nnn3c2COC(c2ccccc2)C3)CC1 (centres undefined)
673	NNC(=O)CNc1cccc(Br)c1
742	CC(C)CNC(=O)CN1CCN(Cc2ccc(F)cc2)C1=O
860	COc1cccc(-c2cc3c(=O)n(CC(O)c4ccccc4)ccn3n2)c1 (centres undefined)
834	Cc1ccc(NC(=O)Cn2nc(C)cc2C(=O)Nc2ccc3c(c2)OCCO3)cc1
758	CC1=C(c2ccc(C)cc2)S(=O)(=O)N=C1N1CCCN(C(=O)c2ccccn2)CC1
824	CCn1c(N2CCCC(C(=O)NCc3cccc(C)c3)C2)cc(=O)n(C)c1=O (centres undefined)
692	CC(=O)N1CCc2cc(N3CC(C(=O)Nc4ccccc4C)CC3=O)ccc21 (centres undefined)
859	CC1=C(c2ccc(F)cc2)S(=O)(=O)N=C1N1CCCN(C(=O)c2cccc(C)c2)CC1

RP-LC retention time [s]	SMILES
1070	CCOc1ccc(NC(=O)c2cc(S(=O)(=O)N3CCC(C)CC3)cn2C)cc1
650	NC(=O)Cc1ccc(NS(=O)(=O)/C=C/c2ccccc2)cc1
719	COc1ccc(-c2ncccc2CNS(=O)(=O)c2c(C)cccc2Cl)cc1
856	Cc1sc(-c2nnc(C3CC3)o2)cc1NC(=O)C1CCC1
758	COC(=O)c1ccc(Cl)cc1NC(=O)N1CCCn2nc(-c3cccnc3)cc2C1
944	O=C(Cn1cccc1-c1nnc(C2CC2)o1)N1CCN(c2cccc(Cl)c2)CC1
706	CCOC(=O)c1c(C)n(CCNC(C)=O)c2cc(Br)c(OC)cc12
927	CC(C)C(=O)Nc1ccc(C2(C(=O)NCc3ccc(F)c(Cl)c3)CCC2)cc1
1050	COc1ccc(C2CC(=O)c3c([nH]c(C(=O)OC4CCCC4C)c3C)C2)cc1OC (centres undefined)
628	O=C(NCC1CCCCC1)C1CCN(c2nnc3ccccn23)CC1
699	O=C(Nc1ccc(-c2nnc3n2CCCC3)cc1)C1CCCCC1
740	COc1ccc(-c2cn3cccnc3n2)cc1NC(=O)c1cccc(Cl)c1
1090	Cc1ccc2c(c1)N(S(C)(=O)=O)CCC(C(=O)Nc1ccc(C(F)(F)F)cc1)O2 (centres undefined)
945	CC1CCc2onc(C(=O)N(CCC#N)c3ccccc3)c2C1 (centres undefined)
1320	Cc1ccc(-c2nc(C3CCN(S(=O)(=O)c4ccc(C)c(C)c4)CC3)no2)cc1
900	Cc1cccc(Nc2c(-c3ccc(N(C)C)cc3)nc3cnccn23)c1C
1030	O=C(C1CCN(S(=O)(=O)c2ccc(-c3noc(C4CC4)n3)cc2)CC1)N1CCCCCC1
718	O=C(CSc1nc2ccccc2o1)NCCn1nc(-c2cccs2)ccc1=O
608	COCC1CN(S(=O)(=O)c2ccc(C#N)cc2)CC12CCNCC2 (centres undefined)
760	Cc1nnc(-c2ccc3ccn(CC(=O)NCc4ccc(F)cc4)c3c2)o1
714	CCCN1CCN(C(=O)C2=Cc3cc(-c4ccccc4)ccc3OC2)CC1
857	Cn1nc(-c2nnc(-c3ccccc3)o2)c2c1CCN(S(=O)(=O)c1cccc3cccnc13)C2

RP-LC retention time [s]	SMILES
608	CCNc1cc(N2CCC(CCC(=O)N3CCCC3)CC2)ncn1
622	Cn1ncc2c3ccccc3n(CC(=O)N3CCN(C4CCCCC4)CC3)c2c1=O
672	COc1ccc(-c2nc3cnccn3c2Nc2ccc3c(c2)OCO3)cc1OC
864	O=C1NCCCCCN(C(=O)Cn2c(=O)oc3ccccc32)[C@@H]2C[C@@H](C(=O)N3CCc4ccccc4C3)C[C@H]12
822	O=C(Cn1c(=O)c2cccn2c2ccc(F)cc21)NCCc1cccs1
734	CCCCNc1c(C(=O)OC)c(=O)[nH]c2ccc(F)cc12
782	Cc1ccc(Nc2c(-c3ccc(C)cc3)nc3cccc(C)n23)cc1
974	CCc1nn2c(CNS(=O)(=O)c3ccc(F)c(C)c3)c(-c3ccccc3)nc2s1
902	CCOc1ccc(CNC(=O)c2cc(S(=O)(=O)N3CCCC3)c(C)n2C)cc1
622	Cc1nc(CCNC(=O)[C@H]2CCCN2C(=O)c2ccccc2)cs1
806	Cc1noc(-c2ccnc(-n3cnc(C(=O)NCc4ccccc4)c3)c2)n1
597	Cc1cc2nc(NC3=NCN(CCO)CN3)nc(C)c2cc1C
958	CCc1nc(OCC(=O)Nc2ccc(Cl)c(Cl)c2)c2ccccc2n1
962	CCOc1ccccc1CNC(=O)CN1C(=O)CSc2cccn2-c2ccccc21
769	Cc1cc(C(F)(F)F)nn1CC(=O)N1CCC(c2noc(-c3ccccn3)n2)C1 (centres undefined)
649	Cc1ccc(CNC(=O)C2CCCN(c3nnc4ccccn34)C2)o1 (centres undefined)
1210	CCCN(C(=O)CC)c1nc(-c2ccccc2)cs1
669	Cc1cc(C(=O)N2CCCCCC2c2nnc(C)o2)on1 (centres undefined)
918	COc1ccccc1NC(=O)C1CCN(S(=O)(=O)c2cc(-c3noc(C)n3)cs2)CC1
838	CC(C)CN1CCn2cc(S(=O)(=O)NCc3ccc(F)cc3Cl)cc2C1=O

SMILES	RP-LC retention time [s]
Fc1cnccc1CN1CC[C@@H]2CN(Cc3ccccc3)[C@@H]2C1	597
COc1ccc2c(c1)C1(CCN(C(=O)c3ccc(OC)c(OC)c3)C1)C(=O)N2C (centres undefined)	886
CCn1cc(C(=O)NCc2ccccc2C)c2cccnc21	809
